Reference: US20230365592A1 (Agios Pharmaceuticals, Inc., priority 2022, published 2023)

The compounds below were run against T1, human PAH with the R408W mutation (Homo sapiens, UniProt P00439, R408W) (assay: Cell Based Phenylalanine Flux Assay). Conditions: A375 cells expressing human R408W PAH; 24 hrs compound incubation; 13C-Tyrosine by LC-MS; average where tested multiple times; read-out: AC50.
T1 construct: expressed in transfected cells
T1 sequence (P00439 1-452 R408W): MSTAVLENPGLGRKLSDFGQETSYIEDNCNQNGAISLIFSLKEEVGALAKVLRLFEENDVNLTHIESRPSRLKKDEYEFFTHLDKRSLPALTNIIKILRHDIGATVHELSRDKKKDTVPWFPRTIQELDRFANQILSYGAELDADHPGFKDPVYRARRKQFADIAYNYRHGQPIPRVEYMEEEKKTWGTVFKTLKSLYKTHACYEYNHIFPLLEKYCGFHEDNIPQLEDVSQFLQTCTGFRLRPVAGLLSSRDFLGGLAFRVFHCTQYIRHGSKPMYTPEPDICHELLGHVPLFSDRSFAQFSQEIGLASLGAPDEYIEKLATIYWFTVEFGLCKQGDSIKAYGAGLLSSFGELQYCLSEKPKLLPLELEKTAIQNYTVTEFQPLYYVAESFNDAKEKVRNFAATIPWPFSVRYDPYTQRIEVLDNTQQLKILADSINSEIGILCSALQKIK
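Also: after compound treatment, cells received sepiapterin plus isotope-labelled Phenylalanine for 4 hours, then labelled Tyrosine in the medium was quantified, 10-point 2-fold dilution series run in duplicate.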

Row | AC50 [nM] | Compound
1 | 1000 to 5000 | CC(C)(C)c1nnc(C(=O)N2CCc3[nH]cnc3[C@@H]2c2cc3cccc(Cl)n3n2)o1 [Example 1122, (R)-(5-(tert-butyl)-1,3,4-oxadiazol-2-yl)(4-(7-chloropyrazolo[1,5-a]pyridin-2-yl)-6,7-dihydro-1H-imidazo[4,5-c]pyridin-5(4H)-yl)methanone]
2 | < 500 | CC(C)(C)c1nnc(C(=O)N2CCc3[nH]cnc3[C@H]2c2cc3cccc(Cl)n3n2)o1 [Example 1123, (S)-(5-(tert-butyl)-1,3,4-oxadiazol-2-yl)(4-(7-chloropyrazolo[1,5-a]pyridin-2-yl)-6,7-dihydro-1H-imidazo[4,5-c]pyridin-5(4H)-yl)methanone]
3 | 500 to 1000 | CC(C)(C)c1nnc(C(=O)N2CCc3[nH]cnc3[C@H]2c2cc3ccc(F)cn3n2)o1 [Example 1124, (S)-(5-(tert-butyl)-1,3,4-oxadiazol-2-yl)(4-(6-fluoropyrazolo[1,5-a]pyridin-2-yl)-6,7-dihydro-1H-imidazo[4,5-c]pyridin-5(4H)-yl)methanone]
4 | < 500 | Cn1nc(C(F)F)nc1C(=O)N1CCc2[nH]cnc2[C@H]1c1cc2ccc(C(F)(F)F)cn2n1 [Example 1126, (S)-(3-(difluoromethyl)-1-methyl-1H-1,2,4-triazol-5-yl)(4-(6-(trifluoromethyl)pyrazolo[1,5-a]pyridin-2-yl)-6,7-dihydro-1H-imidazo[4,5-c]pyridin-5(4H)-yl)methanone]
5 | 500 to 1000 | Cn1ccc(-c2nnc(C(=O)N3CCc4[nH]cnc4[C@H]3c3cc4ccc(C(F)(F)F)cn4n3)o2)n1 [Example 1128, (S)-(5-(1-methyl-1H-pyrazol-3-yl)-1,3,4-oxadiazol-2-yl)(4-(6-(trifluoromethyl)pyrazolo[1,5-a]pyridin-2-yl)-6,7-dihydro-1H-imidazo[4,5-c]pyridin-5(4H)-yl)methanone]
6 | 1000 to 5000 | Cn1ccc(-c2nnc(C(=O)N3CCc4[nH]cnc4[C@@H]3c3cc4ccc(C(F)(F)F)cn4n3)o2)n1 [Example 1129, (R)-(5-(1-methyl-1H-pyrazol-3-yl)-1,3,4-oxadiazol-2-yl)(4-(6-(trifluoromethyl)pyrazolo[1,5-a]pyridin-2-yl)-6,7-dihydro-1H-imidazo[4,5-c]pyridin-5(4H)-yl)methanone]
7 | 500 to 1000 | O=C(c1nnc(C2CC2)o1)N1CCc2[nH]cnc2[C@H]1c1cc2cc(F)ccn2n1 [Example 1130, (S)-(5-cyclopropyl-1,3,4-oxadiazol-2-yl)(4-(5-fluoropyrazolo[1,5-a]pyridin-2-yl)-6,7-dihydro-1H-imidazo[4,5-c]pyridin-5(4H)-yl)methanone]
8 | 1000 to 5000 | O=C(c1nnc(C2CC2)o1)N1CCc2[nH]cnc2[C@@H]1c1cc2cc(F)ccn2n1 [Example 1131, (R)-(5-cyclopropyl-1,3,4-oxadiazol-2-yl)(4-(5-fluoropyrazolo[1,5-a]pyridin-2-yl)-6,7-dihydro-1H-imidazo[4,5-c]pyridin-5(4H)-yl)methanone]
9 | < 500 | O=C(c1ccnn1C(F)F)N1CCc2[nH]cnc2[C@H]1c1cc2cc(C(F)(F)F)ccn2n1 [Example 1132, (S)-(1-(difluoromethyl)-1H-pyrazol-5-yl)(4-(5-(trifluoromethyl)pyrazolo[1,5-a]pyridin-2-yl)-6,7-dihydro-1H-imidazo[4,5-c]pyridin-5(4H)-yl)methanone]
10 | < 500 | O=C(c1nnc(-c2cnn(C(F)F)c2)o1)N1CCc2[nH]cnc2[C@H]1c1cc2c(Cl)cccn2n1 [Example 1134, (S)-(4-(4-chloropyrazolo[1,5-a]pyridin-2-yl)-6,7-dihydro-1H-imidazo[4,5-c]pyridin-5(4H)-yl)(5-(1-(difluoromethyl)-1H-pyrazol-4-yl)-1,3,4-oxadiazol-2-yl)methanone]
11 | 1000 to 5000 | O=C(c1nnc(-c2cnn(C(F)F)c2)o1)N1CCc2[nH]cnc2[C@@H]1c1cc2c(Cl)cccn2n1 [Example 1135, (R)-(4-(4-chloropyrazolo[1,5-a]pyridin-2-yl)-6,7-dihydro-1H-imidazo[4,5-c]pyridin-5(4H)-yl)(5-(1-(difluoromethyl)-1H-pyrazol-4-yl)-1,3,4-oxadiazol-2-yl)methanone]
12 | < 500 | O=C(c1ccnn1C(F)F)N1CCc2[nH]cnc2[C@H]1c1cc2ccc(C(F)(F)F)cn2n1 [Example 1138, (S)-(1-(difluoromethyl)-1H-pyrazol-5-yl)(4-(6-(trifluoromethyl)pyrazolo[1,5-a]pyridin-2-yl)-6,7-dihydro-1H-imidazo[4,5-c]pyridin-5(4H)-yl)methanone]
13 | 500 to 1000 | O=C(c1nnc(C2CC2)o1)N1CCc2[nH]cnc2[C@H]1c1cc2cccc(C(F)(F)F)n2n1 [Example 1140, (S)-(5-cyclopropyl-1,3,4-oxadiazol-2-yl)(4-(7-(trifluoromethyl)pyrazolo[1,5-a]pyridin-2-yl)-6,7-dihydro-1H-imidazo[4,5-c]pyridin-5(4H)-yl)methanone]
14 | < 500 | Cn1nc(Cl)nc1C(=O)N1CCc2[nH]cnc2[C@H]1c1cc2cccc(Cl)n2n1 [Example 1142, (S)-(3-chloro-1-methyl-1H-1,2,4-triazol-5-yl)(4-(7-chloropyrazolo[1,5-a]pyridin-2-yl)-6,7-dihydro-1H-imidazo[4,5-c]pyridin-5(4H)-yl)methanone]
15 | 500 to 1000 | Cn1ncnc1C(=O)N1CCc2[nH]cnc2[C@H]1c1cc2cccc(C(F)(F)F)n2n1 [Example 1144, (S)-(1-methyl-1H-1,2,4-triazol-5-yl)(4-(7-(trifluoromethyl)pyrazolo[1,5-a]pyridin-2-yl)-6,7-dihydro-1H-imidazo[4,5-c]pyridin-5(4H)-yl)methanone]
16 | < 500 | Cc1cccc2cc([C@@H]3c4nc[nH]c4CCN3C(=O)c3ocnc3C(F)(F)F)nn12 [Example 1146, (S)-(4-(7-methylpyrazolo[1,5-a]pyridin-2-yl)-6,7-dihydro-1H-imidazo[4,5-c]pyridin-5(4H)-yl)(4-(trifluoromethyl)oxazol-5-yl)methanone]
17 | 500 to 1000 | Cc1ncoc1C(=O)N1CCc2[nH]cnc2[C@H]1c1cc2cccc(C)n2n1 [Example 1148, (S)-(4-methyloxazol-5-yl)(4-(7-methylpyrazolo[1,5-a]pyridin-2-yl)-6,7-dihydro-1H-imidazo[4,5-c]pyridin-5(4H)-yl)methanone]
18 | 1000 to 5000 | Cc1ncoc1C(=O)N1CCc2[nH]cnc2[C@@H]1c1cc2cccc(C)n2n1 [Example 1149, (R)-(4-methyloxazol-5-yl)(4-(7-methylpyrazolo[1,5-a]pyridin-2-yl)-6,7-dihydro-1H-imidazo[4,5-c]pyridin-5(4H)-yl)methanone]
19 | < 500 | Cc1cccc2cc([C@@H]3c4nc[nH]c4CCN3C(=O)c3oc(C(C)(C)O)nc3C(F)(F)F)nn12 [Example 1150, (S)-(2-(2-hydroxypropan-2-yl)-4-(trifluoromethyl)oxazol-5-yl)(4-(7-methylpyrazolo[1,5-a]pyridin-2-yl)-6,7-dihydro-1H-imidazo[4,5-c]pyridin-5(4H)-yl)methanone]
20 | < 500 | Cc1cccc2cc([C@@H]3c4nc[nH]c4CCN3C(=O)c3oc([C@H](C)O)nc3C(F)F)nn12 [Example 1152, (4-(difluoromethyl)-2-((S)-1-hydroxyethyl)oxazol-5-yl)((S)-4-(7-methylpyrazolo[1,5-a]pyridin-2-yl)-6,7-dihydro-1H-imidazo[4,5-c]pyridin-5(4H)-yl)methanone]
21 | < 500 | O=C(c1ocnc1C(F)F)N1CCc2[nH]cnc2[C@H]1c1cc2cccc(C(F)(F)F)n2n1 [Example 1154, (S)-(4-(difluoromethyl)oxazol-5-yl)(4-(7-(trifluoromethyl)pyrazolo[1,5-a]pyridin-2-yl)-6,7-dihydro-1H-imidazo[4,5-c]pyridin-5(4H)-yl)methanone]
22 | < 500 | CC(C)(O)c1nc(C(F)F)c(C(=O)N2CCc3[nH]cnc3[C@H]2c2cc3cccc(C(F)(F)F)n3n2)o1 [Example 1156, (S)-(4-(difluoromethyl)-2-(2-hydroxypropan-2-yl)oxazol-5-yl)(4-(7-(trifluoromethyl)pyrazolo[1,5-a]pyridin-2-yl)-6,7-dihydro-1H-imidazo[4,5-c]pyridin-5(4H)-yl)methanone]
23 | 500 to 1000 | O=C(c1cnco1)N1CCc2[nH]cnc2[C@H]1c1cc2c(C(F)(F)F)cccn2n1 [Example 1158, (S)-oxazol-5-yl(4-(4-(trifluoromethyl)pyrazolo[1,5-a]pyridin-2-yl)-6,7-dihydro-1H-imidazo[4,5-c]pyridin-5(4H)-yl)methanone]
24 | 1000 to 5000 | CC(C)(F)c1nnc(C(=O)N2CCc3[nH]cnc3[C@@H]2c2cc3cccc(C(F)(F)F)n3n2)o1 [Example 1160, (R)-(5-(2-fluoropropan-2-yl)-1,3,4-oxadiazol-2-yl)(4-(7-(trifluoromethyl)pyrazolo[1,5-a]pyridin-2-yl)-6,7-dihydro-1H-imidazo[4,5-c]pyridin-5(4H)-yl)methanone]
25 | 500 to 1000 | CC(C)(F)c1nnc(C(=O)N2CCc3[nH]cnc3[C@H]2c2cc3cccc(C(F)(F)F)n3n2)o1 [Example 1161, (S)-(5-(2-fluoropropan-2-yl)-1,3,4-oxadiazol-2-yl)(4-(7-(trifluoromethyl)pyrazolo[1,5-a]pyridin-2-yl)-6,7-dihydro-1H-imidazo[4,5-c]pyridin-5(4H)-yl)methanone]
26 | < 500 | Cn1nc(Cl)nc1C(=O)N1CCc2[nH]cnc2[C@H]1c1cc2cccc(C(F)(F)F)n2n1 [Example 1162, (S)-(3-chloro-1-methyl-1H-1,2,4-triazol-5-yl)(4-(7-(trifluoromethyl)pyrazolo[1,5-a]pyridin-2-yl)-6,7-dihydro-1H-imidazo[4,5-c]pyridin-5(4H)-yl)methanone]
